Experiments:
KMS-12-PE Bcl-2 G101V = experiment: In vitro cytotoxicity CellTiter-Glo 48 h, KMS-12-PE Bcl-2 G101V; format: cell-based; details: for Ratio (G101V/WT): C50 KMS-12-PE Bcl-2 G101V over C50 KMS-12-PE Bcl-2 WT; for IC50: Homo sapiens, KMS-12-PE, 48 h, CellTiter-Glo, C50 = concentration needed to reach 50% of the cellular viability
Outline: (§1)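 KMS-12-PE myeloma cells were lentivirally transduced with wild-type or G101V-mutant Bcl-2 and sorted by TagRFP. They were exposed to compounds as 11-point dose responses for 48 h at 37 °C, 5% CO2. Viability was read by CellTiter-Glo ATP luminescence, and C50 was the concentration giving 50% viability.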

BCLXL WT = BCLXL WT (Homo sapiens (Human), UniProt Q07817); experiment: TR-FRET competitive binding assay, BCLXL WT; details: for Ki: BCLXL WT, Ki determined from IC50, read-out: TR_FRET EKI BclxL; for TR_FRET EKI BCLxL/WT selectivty ratio: ratio Ki BCLxL / Ki BCL2 WT
BCLXL WT, sequence (Q07817 other isoform, or with tags, fused parts or gaps): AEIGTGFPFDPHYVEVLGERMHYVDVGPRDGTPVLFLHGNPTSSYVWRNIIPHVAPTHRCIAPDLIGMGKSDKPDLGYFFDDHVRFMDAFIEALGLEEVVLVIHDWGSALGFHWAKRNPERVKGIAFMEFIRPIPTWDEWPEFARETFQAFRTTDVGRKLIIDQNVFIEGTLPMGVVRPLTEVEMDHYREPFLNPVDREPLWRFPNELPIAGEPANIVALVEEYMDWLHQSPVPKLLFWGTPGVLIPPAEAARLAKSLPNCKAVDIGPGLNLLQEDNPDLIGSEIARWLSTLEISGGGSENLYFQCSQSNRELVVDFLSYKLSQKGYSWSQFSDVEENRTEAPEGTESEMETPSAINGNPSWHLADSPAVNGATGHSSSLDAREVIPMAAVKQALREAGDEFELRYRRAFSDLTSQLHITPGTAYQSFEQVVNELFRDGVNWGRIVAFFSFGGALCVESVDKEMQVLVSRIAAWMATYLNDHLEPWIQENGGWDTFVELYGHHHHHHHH
Outline: (§2)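 Ki derived from IC50 (11-point dilution, 520/495 nm emission ratio) for displacing a fluorescein-labelled PUMA peptide (2 or 20 nM). Target was 0.5 nM E. coli-expressed Halo-tagged BCL2 (1-207) or BCLXL (2-196), terbium-labelled on Halo. Incubation 2 h at 23°C in pH 7.5 Hepes with 150 mM NaCl and 5% DMSO.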

BCL2 D111A = BCL2 D111A (Homo sapiens, UniProt P10415, D111A); experiment: TR-FRET competitive binding assay, BCL2 D111A; details: Ki determined from IC50, read-out: TR_FRET EKI_Bcl2 D111A
Outline: as §2

BCL2 F104I = BCL2 F104I (Homo sapiens, UniProt P10415, F104I); experiment: TR-FRET competitive binding assay, BCL2 F104I; details: Ki determined from IC50, read-out: TR_FRET EKI_Bcl2 F104I
Outline: as §2

BCL2 G101V [1] = experiment: TR-FRET competitive binding assay, BCL2 G101V; design: species or system human; details: ratio Ki BCL2 G101V / Ki BCL2 WT
Outline: as §2

BCL2 G101V [2] = molecular target: BCL2 G101V (Homo sapiens, UniProt P10415, G101V); experiment: TR-FRET competitive binding assay, BCL2 G101V; details: BCL2 G101V; Ki determined from IC50; read-out: TR_FRET EKI_Bcl2 G101V
Outline: as §2

BCL2 D103Y = BCL2 D103Y (Homo sapiens, UniProt P10415, D103Y); experiment: TR-FRET competitive binding assay, BCL2 D103Y; details: Ki determined from IC50, read-out: TR_FRET EKI_Bcl2 D103Y
Outline: as §2

KMS-12-PE Bcl-2 WT = experiment: In vitro cytotoxicity CellTiter-Glo 48 h, KMS-12-PE Bcl-2 WT; format: cell-based; details: C50 = concentration needed to reach 50% of the cellular viability
Outline: as §1

BCL2 WT = BCL2 WT (Homo sapiens (Human), UniProt P10415); experiment: TR-FRET competitive binding assay, BCL2 WT; details: Ki determined from IC50, read-out: TR_FRET EKI_Bcl2 WT
Outline: as §2

Row | Ki (BCLXL WT) | TR_FRET EKI BCLxL/WT selectivty ratio (BCLXL WT) | Ki (BCL2 D111A) | Ki (BCL2 F104I) | TR_FRET EKI G101V/WT selectivty ratio (BCL2 G101V [1]) | Ki (BCL2 G101V [2]) | Ki (BCL2 D103Y) | Ki (BCL2 WT) | SMILES | Ratio (G101V/WT) (KMS-12-PE Bcl-2 G101V) | IC50 (KMS-12-PE Bcl-2 G101V) | IC50 (KMS-12-PE Bcl-2 WT; Homo sapiens, KMS-12-PE) | IC50 (KMS-12-PE Bcl-2 WT)
1 | 1.5 nM | 35.7 | 0.18 nM | 1.02 nM | 5.0 | 0.2 nM | 0.13 nM | 0.04 nM | Cc1c(N(C(=O)c2cc(-c3cc4c(cc3C(=O)N3Cc5ccccc5C[C@H]3C)CN(C(=O)Cc3ccc(OCCN(C)C5CC5)nc3)CC4)n(C)c2C)c2ccc(O)cc2)cc(C#N)n1C [Example 61, N-(5-cyano-1,2-dimethyl-1H-pyrrol-3-yl)-5-{2-[2-(6-{2-[cyclopropyl(methyl)amino]ethoxy}pyridin-3-yl)acetyl]-7-[(3R)-3-methyl-1,2,3,4-tetrahydroisoquinoline-2-carbonyl]-1,2,3,4-tetrahydroisoquinolin-6-yl}-N-(4-hydroxyphenyl)-1,2-dimethyl-1H-pyrrole-3-carboxamide] | 5.76 | 0.0824 µM | 0.0143 µM | 
2 | 2.4 nM | 38.7 | 0.09 nM | 0.38 nM | 5.5 | 0.3 nM | 0.47 nM | 0.06 nM | Cc1c(C(=O)N(c2ccc(O)cc2)c2cnc3c(cnn3C)c2)cc(-c2cc3c(cc2C(=O)N2Cc4ccccc4C[C@H]2C)CN(C(=O)Cc2ccc(OCCN4CCOCC4)cc2)CC3)n1C [Example 62, N-(4-hydroxyphenyl)-1,2-dimethyl-5-(7-{[(3R)-3-methyl-3,4-dihydro-1H-isoquinolin-2-yl]carbonyl}-2-(2-{4-[2-(morpholin-4-yl)ethoxy]phenyl}acetyl)-3,4-dihydro-1H-isoquinolin-6-yl)-N-{1-methylpyrazolo[3,4-b]pyridin-5-yl}pyrrole-3-carboxamide] | 7.56 | 0.0892 µM | 0.0118 µM | 
3 | 4.1 nM | 52.6 | 0.14 nM | 1.12 nM | 9.4 | 0.7 nM | 0.8 nM | 0.08 nM | Cc1c(N(C(=O)c2cc(-c3cc4c(cc3C(=O)N3Cc5ccccc5C[C@H]3C)CN(C(=O)Cc3ccc(OCCN5CCOCC5)cc3)CC4)n(C)c2C)c2ccccc2)cc(C#N)n1C [Example 65, N-(5-cyano-1,2-dimethylpyrrol-3-yl)-1,2-dimethyl-5-(7-{[(3R)-3-methyl-3,4-dihydro-1H-isoquinolin-2-yl]carbonyl}-2-(2-{4-[2-(morpholin-4-yl)ethoxy]phenyl}acetyl)-3,4-dihydro-1H-isoquinolin-6-yl)-N-phenylpyrrole-3-carboxamide] | 15 | 0.0414 µM |  | 0.0028 µM
4 | 1.6 nM | 10.7 | 0.31 nM | 1.02 nM | 8.0 | 1.2 nM | 0.68 nM | 0.15 nM | Cc1c(C(=O)N(c2ccc(O)cc2)c2cc(C#N)n(C3CC3)c2C)cc(-c2cc3c(cc2C(=O)N2Cc4ccccc4C[C@H]2C)CN(C(=O)Cc2ccc(OCCN4CCOCC4)cc2)CC3)n1C [Example 71, N-(5-cyano-1-cyclopropyl-2-methyl-pyrrol-3-yl)-N-(4-hydroxyphenyl)-1,2-dimethyl-5-[7-[(3R)-3-methyl-3,4-dihydro-1H-isoquinoline-2-carbonyl]-2-[2-[4-(2-morpholinoethoxy)phenyl]acetyl]-3,4-dihydro-1H-isoquinolin-6-yl]pyrrole-3-carboxamide] | 3.88 | 0.0356 µM | 0.0092 µM | 
5 | 3.7 nM | 26.4 | 0.21 nM | 1.17 nM | 6.1 | 0.9 nM | 0.37 nM | 0.14 nM | COc1ncc(N(C(=O)c2cc(-c3cc4c(cc3C(=O)N3Cc5ccccc5C[C@H]3C)CN(C(=O)Cc3ccc(OCCN5CCOCC5)cc3)CC4)n(C)c2C)c2ccc(O)cc2)cc1F [Example 72, N-(5-fluoro-6-methoxypyridin-3-yl)-N-(4-hydroxyphenyl)-1,2-dimethyl-5-(7-{[(3R)-3-methyl-3,4-dihydro-1H-isoquinolin-2-yl]carbonyl}-2-(2-{4-[2-(morpholin-4-yl)ethoxy]phenyl}acetyl)-3,4-dihydro-1H-isoquinolin-6-yl)pyrrole-3-carboxamide] | 6.42 | 0.0427 µM | 0.0066 µM | 

The remaining lines, values behind:

Row | SMILES | Ki (BCLXL WT) | TR_FRET EKI BCLxL/WT selectivty ratio (BCLXL WT) | Ki (BCL2 D111A) | Ki (BCL2 F104I) | TR_FRET EKI G101V/WT selectivty ratio (BCL2 G101V [1]) | Ki (BCL2 G101V [2]) | Ki (BCL2 D103Y) | Ki (BCL2 WT) | Ratio (G101V/WT) (KMS-12-PE Bcl-2 G101V) | IC50 (KMS-12-PE Bcl-2 G101V) | IC50 (KMS-12-PE Bcl-2 WT; Homo sapiens, KMS-12-PE) | IC50 (KMS-12-PE Bcl-2 WT)
6 | Cc1c(N(C(=O)c2cc(-c3cc4c(cc3C(=O)N3Cc5ccccc5C[C@H]3C)CN(C(=O)Cc3ccc(C5CCN(CC(F)F)CC5)cc3F)CC4)n(C)c2C)c2ccc(O)cc2)cc(C#N)n1C [Example 48, N-(5-cyano-1,2-dimethylpyrrol-3-yl)-5-[2-(2-{4-[1-(2,2-difluoroethyl)piperidin-4-yl]-2-fluorophenyl}acetyl)-7-{[(3R)-3-methyl-3,4-dihydro-1H-isoquinolin-2-yl]carbonyl}-3,4-dihydro-1H-isoquinolin-6-yl]-N-(4-hydroxyphenyl)-1,2-dimethylpyrrole-3-carboxamide] | 9.4 nM | 18.8 | 1.63 nM | 10.2 nM | 2.6 | 1.3 nM | 0.79 nM | 0.5 nM | 6.44 | 0.0268 µM | 0.0048 µM | 
7 | Cc1c(N(C(=O)c2cc(-c3cc4c(cc3C(=O)N3Cc5ccccc5C[C@H]3C)CN(C(=O)Cc3ccc(OCCN5CCC(F)(F)C5)cc3)CC4)n(C)c2C)c2ccc(O)cc2)cc(C#N)n1C [Example 50, N-(5-cyano-1,2-dimethyl-1H-pyrrol-3-yl)-5-[2-(2-{4-[2-(3,3-difluoropyrrolidin-1-yl)ethoxy]phenyl}acetyl)-7-[(3R)-3-methyl-1,2,3,4-tetrahydroisoquinoline-2-carbonyl]-1,2,3,4-tetrahydroisoquinolin-6-yl]-N-(4-hydroxyphenyl)-1,2-dimethyl-1H-pyrrole-3-carboxamide] | 5.8 nM | 22.3 | 1.46 nM | 4.66 nM | 2.3 | 0.6 nM | 0.58 nM | 0.26 nM | 6.53 | 0.0341 µM | 0.0052 µM | 
8 | Cc1c(N(C(=O)c2cc(-c3cc4c(cc3C(=O)N3Cc5ccccc5C[C@H]3C)CN(C(=O)Cc3ccc(OCCN5CCO[C@@H](C)C5)cc3)CC4)n(C)c2C)c2ccc(O)cc2)cc(C#N)n1C [Example 57, N-(5-cyano-1,2-dimethyl-1H-pyrrol-3-yl)-N-(4-hydroxyphenyl)-1,2-dimethyl-5-{7-[(3R)-3-methyl-1,2,3,4-tetrahydroisoquinoline-2-carbonyl]-2-(2-{4-[2-((2S)-2-methylmorpholin-4-yl)ethoxy]phenyl}acetyl)-1,2,3,4-tetrahydroisoquinolin-6-yl}-1H-pyrrole-3-carboxamide] | 1.7 nM | 34.7 | 0.21 nM | 0.47 nM | 4.1 | 0.2 nM | 0.15 nM | 0.05 nM | 4.32 | 0.0208 µM | 0.0048 µM | 
9 | Cc1c(N(C(=O)c2cc(-c3cc4c(cc3C(=O)N3Cc5ccccc5C[C@H]3C)CN(C(=O)Cc3ccc(OCCN(C)C5COC5)cc3)CC4)n(C)c2C)c2ccc(O)cc2)cc(C#N)n1C [Example 60, N-(5-cyano-1,2-dimethyl-1H-pyrrol-3-yl)-N-(4-hydroxyphenyl)-1,2-dimethyl-5-{2-[2-(4-{2-[methyl(oxetan-3-yl)amino]ethoxy}phenyl)acetyl]-7-[(3R)-3-methyl-1,2,3,4-tetrahydroisoquinoline-2-carbonyl]-1,2,3,4-tetrahydroisoquinolin-6-yl}-1H-pyrrole-3-carboxamide] | 1 nM | 19.2 | 0.09 nM | 0.21 nM | 3.5 | 0.2 nM | 0.14 nM | 0.05 nM | 4.91 | 0.0367 µM | 0.0075 µM | 

From patent US20250179047A1, “5-[7-(3,4-DIHYDRO-1H-ISOQUINOLINE-2-CARBONYL)-1,2,3,4 TETRAHYDROISOQUINOLIN-6-YL]-1H-PYRROLE-3-CARBOXAMIDE DERIVATIVES, PHARMACEUTICAL COMPOSITIONS CONTAINING THEM AND THEIR USES AS PRO-APOPTOTIC AGENTS” (LES LABORATOIRES SERVIER, priority 2022, published 2025)
